Experiment [1] relates to E. coli strain BL21. Nature of the experiment: GFP fluorescent signal of dopamine probes and controls in living E. coli BL21, confocal microscopy. The experiment is classed as cell-based. As to conditions: living E. coli BL21 after IPTG induction, excited by 488 nm laser, no substrate.
The test system of experiment [2] is PC12 cell line. The experiment in a line: GFP fluorescent signal of dopamine probes and controls in PC12 stable cell lines, confocal microscopy. As to conditions: excited by 488 nm laser, no substrate. The experiment is classed as cell-based, rat. From the text:
The rat pheochromocytoma cells (PC12 cell) were transfected with sequences of GFP, ΔhMAO B, and the probe protein through vector containing internal ribosome entry site (IRES). After antibiotic selection for more than a month, cell lines consistently expressing dopamine probe proteins were successfully established. The cell lines were detected by GFP antibody in Western blotting and observed by confocal microscopy.

Experiment [3] concerns the target T1, hMAO B-GFP fusion protein (medium form of dopamine probe) in PC12 cells (Homo sapiens, UniProt P27338).
T1 construct: expressed in transfected cells
The experiment in a line: MAO substrates MPTP and L-DOPA added to cells expressing dopamine probe elicit GFP fluorescence. As to conditions: for GFP fluorescence after drug treatment: PC12 cells expressing medium form of dopamine probe; for green fluorescence (release from shield effect) after treatment: preliminary experiment, excitation of 488 nm laser, a part of the cells. The experiment is classed as cell-based. From the text: Additions of MAO Substrates 1-methyl-4-phenyl-1,2,3,6-tetrahydropyridine (MPTP) and L-DOPA in Cells Expressing Dopamine Probe Elicit GFP Fluorescence
MPTP is a widely used compound as an MAO substrate. It is also used for measuring the enzyme activity of the MAO protein. The L-DOPA is a stable dopamine precursor and has been extensively used for the treatment of Parkinson's disease. After entering the cell, it could be converted into dopamine by the dopa decarboxylase. Both of the drugs could bind to dopamine transporter and be transported into the PC12 cells.

[4] abbreviates: differentiated PC12 cell line (NGF).
The mark [5] stands for this setting: undifferentiated PC12 cell line.

On to “GFP: full-length green fluorescent protein, SEQ ID NO: 2, control [reference compound]”, for which the GFP fluorescent signal entry in experiment [1] is on record as “Evident expression of green fluorescent signal”; in experiment [1] (listed as full length GFP), “clear fluorescent signals”; in experiment [2] (setting [4]) it was “clear fluorescent signals”; in experiment [2] (setting [5]) it was “clear fluorescent signals”.

On to `CN1CC=C(c2ccccc2)CC1` [MPTP, 1-methyl-4-phenyl-1,2,3,6-tetrahydropyridine], for which, in experiment [3] (1 mM MPTP), the “GFP fluorescence after drug treatment” value was “strong GFP fluorescence”. In addition, in experiment [3], the “green fluorescence (release from shield effect) after treatment” value was “green fluorescence in those cells was successfully emitted”.

As to `N[C@@H](Cc1ccc(O)c(O)c1)C(=O)O` [L-DOPA], the “GFP fluorescence after drug treatment” value in experiment [3] (100 μM L-dopa) is recorded as “strong GFP fluorescence”. Also, the “green fluorescence (release from shield effect) after treatment” value in experiment [3] is reported as “green fluorescence in those cells was successfully emitted”.

B1: hMAO B: the complete human monoamine oxidase B, SEQ ID NO: 1, control (protein, listed as Homo sapiens)
chain: MSNKCDVVVVGGGISGMAAAKLLHDSGLNVVVLEARDRVGGRTYTLRNQKVKYVDLGGSYVGPTQNRILRLAKELGLETYKVNEVERLIHHVKGKSYPFRGPFPPVWNPITYLDHNNFWRTMDDMGREIPSDAPWKAPLAEEWDNMTMKELLDKLCWTESAKQLATLFVNLCVTAETHEVSALWFLWYVKQCGGTTRIISTTNGGQERKFVGGSGQVSERIMDLLGDRVKLERPVIYIDQTRENVLVETLNHEMYEAKYVISAIPPTLGMKIHFNPPLPMMRNQMITRVPLGSVIKCIVYYKEPFWRKKDYCGTMIIDGEEAPVAYTLDDTKPEGNYAAIMGFILAHKARKLARLTKEERLKKLCELYAKVLGSLEALEPVHYEEKNWCEEQYSGGCYTTYFPPGILTQYGRVLRQPVDRIYFAGTETATHWSGYMEGAVEAGERAAREILHAMGKIPEDEIWQSEPESVDVPAQPITTTFLERHLPSVPGLLRLIGLTTIFSATALGFLAHKRGLLVRV
modifications: mat_peptide (1)..(520)
With B1, the GFP fluorescent signal entry in experiment [1] is “no fluorescent signal”.

B2: ΔhMAO B (protein)
chain: MSNKCDVVVVGGGISGMAAAKLLHDSGLNVVVLEARDRVGGRTYTLRNQKVKYVDLGGSYVGPTQNRILRLAKELGLETYKVNEVERLIHHVKGKSYPFRGPFPPVWNPITYLDHNNFWRTMDDMGREIPSDAPWKAPLAEEWDNMTMKELLDKLCWTESAKQLATLFVNLCVTAETHEVSALWFLWYVKQCGGTTRIISTTNGGQERKFVGGSGQVSERIMDLLGDRVKLERPVIYIDQTRENVLVETLNHEMYEAKYVISAIPPTLGMKIHFNPPLPMMRNQMITRVPLGSVIKCIVYYKEPFWRKKDYCGTMIIDGEEAPVAYTLDDTKPEGNYAAIMGFILAHKARKLARLTKEERLKKLCELYAKVLGSLEALEPVHYEEKNWCEEQYSGGCYTTYFPPGILTQYGRVLRQPVDRIYFAGTETATHWSGYMEGAVEAGERAAREILHAMGKIPEDEI
Take B2: the results for the GFP fluorescent signal entry in experiment [1], in experiment [2] (setting [4]) and in experiment [2] (setting [5]) were “no fluorescent signal”, “no signal” and “no signal”, respectively.

For the origin of these results see patent US8426220B2, “Utilization of shield effect for dopamine detection and reagent development” (National Tsing Hua University, priority 2009, dated 2013).
